Measurements: US8258151B2, “3-aminoimidazo [1,2-A] pyridine derivatives as SGLT inhibitors” (Merck Patent GmbH, priority 2006, dated 2012)

Assays:
SGLT1 = biological target: T1, SGLT1 (Homo sapiens, UniProt P13866); test: SGLT1 activity measurement: 14C-AMG uptake in BHK cells transfected with SGLT1; format: cell-based; conditions: AMG 50 μM, 37° C., 90 min
T1 construct: expressed in transfected cells
T1 sequence (P13866 1-664): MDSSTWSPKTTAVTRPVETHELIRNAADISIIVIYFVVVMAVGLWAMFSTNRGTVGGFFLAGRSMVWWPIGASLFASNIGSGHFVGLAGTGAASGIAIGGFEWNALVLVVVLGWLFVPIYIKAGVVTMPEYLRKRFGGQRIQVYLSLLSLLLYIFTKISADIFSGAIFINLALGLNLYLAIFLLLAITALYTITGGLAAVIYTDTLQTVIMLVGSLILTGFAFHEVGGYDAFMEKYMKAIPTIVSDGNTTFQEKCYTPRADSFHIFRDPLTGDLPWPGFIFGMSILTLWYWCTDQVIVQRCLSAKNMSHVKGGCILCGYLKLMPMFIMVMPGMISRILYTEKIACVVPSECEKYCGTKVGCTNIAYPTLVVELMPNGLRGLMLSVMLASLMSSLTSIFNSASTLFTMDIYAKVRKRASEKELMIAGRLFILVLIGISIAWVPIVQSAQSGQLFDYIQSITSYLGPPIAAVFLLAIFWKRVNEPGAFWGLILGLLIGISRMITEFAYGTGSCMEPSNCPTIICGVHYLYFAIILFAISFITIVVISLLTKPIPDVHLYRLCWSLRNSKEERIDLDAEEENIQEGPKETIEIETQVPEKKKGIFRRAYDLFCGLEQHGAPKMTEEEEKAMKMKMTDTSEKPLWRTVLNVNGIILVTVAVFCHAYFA
Text: (§1) The compounds can be tested on their SGLT inhibition properties by means of BHK cells expressing SGLT1 and SGLT2. The production of the cells and the testing can be carried out as described below.
To construct the SGLT1 expression vector (KL225), the SLC5A1 gene (homologous to NM_000343) was amplified from a cDNA library using standard PCR technology and cloned over NheI/XhoI sites into pcDNA3.1 expression vector (Invitrogen) containing neomycin as a selection marker. In this vector, transcription uses the enhancer/promoter of human cytomegalovirus.
The final vector KL225 together with an additional vector containing a dihydrofolate reductase gene as a selection marker was introduced into cells. Transfection into BHK21 cells (ATCC CCL-10), cultivated in DMEM medium (GIBCO/BRL), supplemented with 10% foetal calf serum (FCS) and 20 mM glutamine, was carried out using calcium phosphate transfections according to Graham, F. L. and van der Ebb, A. J. (1973), Virology 52: 456 with 5-20 μg of uncut plasmids for 10^7 cells. Stable transfectants were selected in medium containing 1 mg/ml of G418 (GIBCO/BRL) and 20-5000 nM methotrexate as final concentration, where only cells which expressed the neomycin gene and overexpressed the dhfr gene were able to grow. After growth for 2-3 weeks, the cells were cloned (0.5 cells/well) and the clones were investigated for SGLT expression in the radioactive uptake assay. […]
(§2) A 96-well cell-based assay was developed and adapted to HTS requirements:
(§3) BHK cells (transfected with SGLT1 or SGLT2) were seeded into 96-well microtitre plates (Cultureplates, Perkin Elmer). After at least 24 h, medium was removed and the cell layer was washed with assay buffer (140 mM NaCl, 2 mM KCl, 1 mM CaCl2, 1 mM MgCl2, 10 mM HEPES, 5 mM Tris, adjusted with 1 M KOH to pH 7.4). After addition of 40 μl of assay buffer, 50 μl of AMG (50 μM for SGLT1 and 2 mM for SGLT2) in the presence or absence of compounds, the cells were incubated in a total volume of 100 μl at 37° C. for 90 min. Supernatant was removed by suction and discarded. The cells were washed and lysed by addition of 50 μl water. After 10 minutes at room temperature 200 μl Microscint 40 (Perkin Elmer) were added. The radioactivity was counted in a Topcount microplate scintillation counter (Perkin Elmer). The non-specific uptake was determined in sodium-free assay buffer (266 mM sucrose, 2 mM KCl, 1 mM CaCl2, 1 mM MgCl2, 10 mM HEPES, 5 mM Tris, adjusted with 1 M KOH to pH 7.4).

SGLT2 = biological target: T2, SGLT2 (Homo sapiens, UniProt P31639); test: SGLT2 activity measurement: 14C-AMG uptake in BHK cells transfected with SGLT2; format: cell-based; conditions: AMG 2 mM, 37° C., 90 min
T2 construct: expressed in transfected cells
T2 sequence (P31639 1-672): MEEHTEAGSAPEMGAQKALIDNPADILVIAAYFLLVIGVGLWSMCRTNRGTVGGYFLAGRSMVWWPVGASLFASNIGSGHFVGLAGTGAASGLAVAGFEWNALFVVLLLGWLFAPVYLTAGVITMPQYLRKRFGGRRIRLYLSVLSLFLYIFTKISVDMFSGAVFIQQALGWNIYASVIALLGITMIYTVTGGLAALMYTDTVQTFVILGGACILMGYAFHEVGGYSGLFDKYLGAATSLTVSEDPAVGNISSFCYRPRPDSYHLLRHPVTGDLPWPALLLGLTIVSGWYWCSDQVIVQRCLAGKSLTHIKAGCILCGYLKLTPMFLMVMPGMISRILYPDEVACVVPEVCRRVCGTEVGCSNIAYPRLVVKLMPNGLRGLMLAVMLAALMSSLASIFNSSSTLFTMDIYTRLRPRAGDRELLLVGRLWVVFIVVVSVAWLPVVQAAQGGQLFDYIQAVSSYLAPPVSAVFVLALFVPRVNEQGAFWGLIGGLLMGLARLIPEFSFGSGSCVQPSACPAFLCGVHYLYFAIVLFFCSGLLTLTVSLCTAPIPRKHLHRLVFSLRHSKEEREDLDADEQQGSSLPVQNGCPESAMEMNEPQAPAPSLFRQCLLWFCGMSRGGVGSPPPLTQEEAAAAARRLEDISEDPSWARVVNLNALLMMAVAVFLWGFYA
Text: as §1
To construct the SGLT2 expression vector (KL224), the SLC5A2 gene (homologous to NM_003041) was amplified from a cDNA library using standard PCR technology and cloned over NheI/XhoI sites into PCI-neo expression vector (Promega) containing neomycin as a selection marker. In this vector, transcription used the enhancer/promoter of human cytomegalovirus and the SV40 polyadenylation signal.
The final vector KL224 together with an additional vector containing a dihydrofolate reductase gene as a selection marker was introduced into cells. Transfection into BHK21 cells (ATCC CCL-10), cultivated in DMEM medium (GIBCO/BRL), supplemented with 10% foetal calf serum (FCS) and 20 mM glutamine, was carried out using calcium phosphate transfections according to Graham, F. L. and van der Ebb, A. J. (1973), Virology 52: 456 with 5-20 μg of uncut plasmids for 10^7 cells. Stable transfectants were selected in medium containing 1 mg/ml of G418 (GIBCO/BRL) and 20-5000 nM methotrexate as final concentration, where only cells which expressed the neomycin gene and overexpressed the dhfr gene were able to grow. After growth for 2-3 weeks, the cells were cloned (0.5 cells/well) and the clones were investigated for SGLT expression in the radioactive uptake assay.
Principally, uptake of ^14C-α-methyl-D-glucopyranoside (AMG) in, for example, Xenopus oocytes injected with the corresponding cRNA has been described (for example Wen-Sen Lee et al. (1994), J. Biol. Chem. 269, 12032-12039; Guofeng You et al. (1995), J. Biol. Chem. 270, 29365-29371).
as §2, §3

IC50 (SGLT1) [µM] | IC50 (SGLT2) [nM] | Compound
1 to 10 | 10 to 1000 | CCc1cc(OC2COC(=O)O2)cc(OCC(N)=O)c1-c1nc2ccc(F)cn2c1Nc1c(C)cccc1C (stereo not drawn) [Compound A198, 2-[2-(Aminocarbonylmethoxy)-4-(2-oxo-1,3-dioxolan-4-yloxy)-6-ethylphenyl]-3-(2,6-dimethyl-phenylamino)-6-fluoroimidazo[1,2-a]pyridine]
1 to 10 | 10 to 1000 | Cc1cccc(C)c1Nc1c(-c2c(C)cc(OCC(N)=O)cc2OCC(N)=O)nc2ccccn12 [Compound A170, 2-[2-(Aminocarbonylmethoxy)-4-(amino-carbonylmethoxy)-6-methylphenyl]-3-(2,6-dimethylphenylamino)imidazo[1,2-a]pyridine]
> 10 | 10 to 1000 | CCc1cc(OC)cc(OCC(N)=O)c1-c1nc2c(N)cccn2c1Nc1c(C)cccc1C [Compound A192, 2-[2-(Aminocarbonylmethoxy)-4-methoxy-6-ethylphenyl]-3-(2,6-dimethylphenylamino)-8-aminoimidazo[1,2-a]pyridine]
> 10 | 1000 to 10000 | CCc1cc(OC)cc(OCC(N)=O)c1-c1nc2ccc(F)cn2c1Nc1c(C)cc(C(=O)OC)cc1C [Compound A245, 2-[2-(Aminocarbonylmethoxy)-4-methoxy-6-ethylphenyl]-3-(2,6-dimethyl-4-methoxycarbonyl-phenylamino)-6-fluoroimidazo[1,2-a]pyridine]
> 10 | 10 to 1000 | COc1cc(C)c(-c2nc3cccc(N)n3c2Nc2c(C)cccc2C)c(OCC(N)=O)c1 [Compound A207, 2-[2-(Aminocarbonylmethoxy)-4-methoxy-6-methylphenyl]-3-(2,6-dimethylphenylamino)-5-aminoimidazo[1,2-a]pyridine]

Further lines, the molecule ahead of its results:

Compound | IC50 (SGLT1) [µM] | IC50 (SGLT2) [nM]
Cc1cccc(C)c1Nc1c(-c2c(O)cccc2OCC(N)=O)nc2ccc(F)cn12 [Compound A175, 2-[2-(Aminocarbonylmethoxy)-6-hydroxyphenyl]-3-(2,6-dimethylphenylamino)-6-fluoroimidazo-[1,2-a]pyridine] | > 10 | 10 to 1000
Cc1cccc(C)c1Nc1c(-c2c(C)cccc2OCC(N)=O)nc2ccc(F)cn12 [Compound A2, 2-[2-(aminocarbonylmethoxy)-6-methylphenyl]-3-(2,6-dimethylphenylamino)-6-fluoroimidazo[1,2-a]pyridine] | 1 to 10 | 10 to 1000
COc1ccc(-c2nc3ccc(F)cn3c2Nc2c(C)cccc2C)c(OCC(N)=O)c1OC [Compound A188, 2-[2-(Aminocarbonylmethoxy)-3,4-dimethoxy-phenyl]-3-(2,6-dimethylphenylamino)-6-fluoro-imidazo[1,2-a]pyridine] | > 10 | 1000 to 10000
Cc1cccc(C)c1Nc1c(-c2ccccc2OCC(N)=O)nc2cccc(C)n12 [Compound A9, 2-[2-(Aminocarbonylmethoxy)phenyl]-3-(2,6-di-methylphenylamino)-5-methylimidazo[1,2-a]-pyridine] | > 10 | 10 to 1000
COc1cc(C)c(-c2nc3ccc(F)cn3c2Nc2ccc(F)cc2F)c(OCC(N)=O)c1 [Compound A229, 2-[2-(Aminocarbonylmethoxy)-4-methoxy-6-methylphenyl]-3-(2,4-difluorophenylamino)-6-fluoroimidazo[1,2-a]pyridine] | > 10 | 1000 to 10000
COc1cc(C)c(-c2nc3ccc(F)cn3c2Nc2c(Br)cccc2Br)c(OCC(N)=O)c1 [Compound A233, 2-[2-(Aminocarbonylmethoxy)-4-methoxy-6-methylphenyl]-3-(2,6-dibromophenylamino)-6-fluoroimidazo[1,2-a]pyridine] | > 10 | 10 to 1000
COc1cc(C)c(-c2nc3ccc(F)cn3c2Nc2c(Br)cc(C)cc2Br)c(OCC(N)=O)c1 [Compound A239, 2-[2-(Aminocarbonylmethoxy)-4-methoxy-6-methylphenyl]-3-(2,6-dibromo-4-methylphenyl-amino)-6-fluoroimidazo[1,2-a]pyridine] | 0.01 to 1 | 10 to 1000
COc1cc(C)c(-c2nc3ccc(F)cn3c2Nc2c(F)cccc2C(F)(F)F)c(OCC(N)=O)c1 [Compound A242, 2-[2-(Aminocarbonylmethoxy)-4-methoxy-6-methylphenyl]-3-(2-fluoro-6-trifluoromethyl-phenylamino)-6-fluoroimidazo[1,2-a]pyridine] | 1 to 10 | 10 to 1000
Cc1cccc(C)c1Nc1c(-c2c(C)cc(OC3CCCCO3)cc2OCC(N)=O)nc2ccc(F)cn12 (stereo not drawn) [Compound A177, 2-[2-(Aminocarbonylmethoxy)-4-(tetra-hydropyran-2-yloxy)-6-methylphenyl]-3-(2,6-dimethylphenylamino)-6-fluoroimidazo[1,2-a]-pyridine] | > 10 | 10 to 1000
Cc1cccc(C)c1Nc1c(-c2c(C)cc(OC3COC(=O)O3)cc2OCC(N)=O)nc2ccc(F)cn12 (stereo not drawn) [Compound A190, 2-[2-(Aminocarbonylmethoxy)-4-(2-oxo-1,3-dioxolan-4-yloxy)-6-methylphenyl]-3-(2,6-dimethylphenylamino)-6-fluoroimidazo[1,2-a]-pyridine] | > 10 | 10 to 1000
